Results taken from PMC6273432, “Novel Selective Butyrylcholinesterase Inhibitors Incorporating Antioxidant Functionalities as Potential Bimodal Therapeutics for Alzheimer’s Disease” (Molecules, 2016).
Values joined by “and” are separate entries in the source; they are usually repeats but may differ in a detail not shown here. Equal entries are not always repeated. Where two headings read alike, the source gives them in different places.

Experiments:
[1] = tested on: HT-22 murine hippocampal cell line; assay: cells; assay type: cell-based; settings: glutamate 5 mM
Protocol: (§1) The neuroprotective properties of the compounds were assessed using the HT-22 murine hippocampal cell line. This is an immortalized cell line which has become widely used in recent years to study oxidative stress induced neuronal cell death. The cell line lacks ionotropic glutamate receptors but is sensitive to glutamate cytotoxicity via non-receptor mediated pathway(s) that are to a significant extent propagated by reactive oxygen species. The cell line appeared to be a good cellular model for measuring an anti-oxidant mediated neuroprotective in vitro effect of the compounds [26, 27, 28].
(§2) Test compounds in DMSO solution (0.1%) were added to HT-22 cell culture for (24 h), using four repeats in three independent experiments. […] Lipoic acid and ferulic acid were also non-toxic in the same concentration range. Next, the neuronal cell culture was treated with glutamate (5 mM) which caused about 90% cell death as reflected in the MTT assay. Quercetin served as positive control and caused rescue of cell death to around 80% cell viability at 25 µM. Cells were co-treated with test compounds 7a–d and 8a–d at 1, 5, 10 and 25 µM in four repeats and three independent experiments. Lipoic and ferulic acid were tested in parallel experiments in the same concentration range. Lipoic acid was active in the range 10–25 µM but ferulic acid was not active (data not shown). […] The reasons for this unexpected variation in efficacy is not clear but may be due to (intra)cellular access.
This test was performed as reported before. Briefly, HT-22 cells were seeded in 96-well plates at a density of 5 × 10^3 per well and cultured for 24 h. Subsequently, cells were incubated for another 24 h either with medium or test compounds with potential cytoprotective activity either in the absence (to test for toxic effects) or the presence (to test for the protective potential against glutamate induced oxidative stress) of 5 mM glutamate. MTT solution (4 mg/mL in PBS) was diluted 1:10 with medium and the mixture was added to the wells after removal of the previous medium. The plates were then incubated for another 3 h. Then, the supernatant was removed and 100 µL of lysis buffer (10% SDS, pH 4.1) were added to the wells. Absorbance at 560 nm was determined on the next day using a multiwell plate photometer (Spectra Fluor Plus, Tecan, Crailsheim, Germany). The results of these cell viability assays were expressed as percentages relative to untreated control cells. All compounds were dissolved in DMSO and diluted with fresh medium, with the DMSO concentration always below 0.1% (v/v).
Data of all MTT tests were expressed as means ± SD of at least three independent experiments (in quadruplicates). Data were subjected to one-way ANOVA followed by Dunnett’s multiple comparison post-test using GraphPad Prism 5 Software. (Levels of significance ** p < 0.01; *** p < 0.001).

[2] = tested on: HT-22 murine hippocampal cell line; assay type: cell-based; settings: 24 h, no glutamate; for toxicity / reduction in cell viability, compound alone: 1–25 µM
Protocol: as §1, §2
This test was performed as reported before. Briefly, HT-22 cells were seeded in 96-well plates at a density of 5 × 10^3 per well and cultured for 24 h. […] Absorbance at 560 nm was determined on the next day using a multiwell plate photometer (Spectra Fluor Plus, Tecan, Crailsheim, Germany). The results of these cell viability assays were expressed as percentages relative to untreated control cells. […]

[3] = biological target: T1, BuChE purified from human plasma (Homo sapiens, UniProt P06276); assay: Ellman assay, BuChE inhibition; assay type: biochemical; settings: for IC50: n = 3; for Selectivity: IC50 AChE/IC50 BuChE, 100 µM used for AChE where % inhibition at 100 µM was <50%
T1 construct: BuChE purified from human plasma; from tissue; host or cells: human plasma
Protocol: (§3) Inhibitory activities of the isosorbide-2-carbamates bearing a lipoate ester (7a–d), a ferulate ester (8a–d) ester or 5-unsubstituted compounds (6a–d) was measured using the standard Ellman spectrophotometric method using AChE from electric eel or BuChE purified from human plasma with acetylthiocholine or butyrylthiocholine as appropriate (Table 1). […] These values are in the potency range of clinically used cholinesterase inhibitors. […] In most cases, it was not possible to achieve a maximal inhibition of AChE because the solubility threshold was lower than the concentration required for maximal inhibition. In previous studies, we noticed that phenyl carbamates of isosorbide are relatively weak inhibitors of BuChE compared with the benzyl and alkyl carbamates, but that AChE is relatively tolerant of isosorbide phenyl carbamates. We published a paper showing that isosorbide-2,5-diaryl esters are moderately potent substrate-inhibitors of AChE [25]. […] The effect of (appropriate) 5-ester substitution in the series of isosorbide compounds already published is to increase potency by promoting affinity in the pre-carbamylation state, reducing the pseudo Michaelis constant for the carbamate substrate (referred to as Kc in carbamylation literature). When the intrinsic affinity of the substrate carbamate is higher, there is a relatively greater proportion of the unimolecular E. carbamate complex. In the present case, the anti-oxidant ester functionality directly contributes to potency by increasing substrate affinity. […] Indeed, ester hydrolysis at the isosorbide C-5, which is slow, would produce the ferulic acid or lipoic acid byproduct.
(§4) Cholinesterase activity was measured using the Ellman spectrophotometric method. HuBuChE activity was measured in replicate samples using a 96-well plate reader. The total volume of test solution in each well was 250 μL. This consisted of 25 μL of plasma solution, 150 μL of phosphate buffer pH 8.0, 25 μL of DTNB solution (0.5 mM), and 25 μL of acetonitrile:distilled water (1:1). The 96-well plate was incubated for 30 min before 25 μL of butyrylthiocholine iodide (BTCI) solution (0.5 mM) was added, and the reaction was measured at 405 nm over 5 min using an Anthos bt2 plate reader. For the determination of AChE activity, 25 μL of electric eel AChE solution and 25 μL of acetylthiocholine iodide (ATCI) solution were used instead of the plasma solution and BTCI solution. For determination of enzyme inhibition, 25 μL of an inhibitor solution was added to the test solution instead of the acetonitrile:water (1:1) solution. Inhibitors were added 30 min before determination of remaining enzyme activity. IC50 values were calculated using GraphPad Prism 4.02 software (GraphPad Software Inc., La Jolla, CA, USA).

AChE from electric eel = biological target: T2, AChE from electric eel (Electrophorus electricus, UniProt O42275); assay: Ellman assay, AChE inhibition; assay type: biochemical; settings: for inhibition at 100 µM: read-out: AChE %I at 100 μM; for IC50: inhibitor added 30 min before
T2 construct: AChE from electric eel; from tissue
Protocol: as §3, §4

BuChE = settings: cited from earlier work
[4] = Oxygen radical absorbance capacity (ORAC) assay; assay type: physicochemical; settings: for ORAC antioxidant capacity: TE = 1 equals trolox
Protocol: The antioxidant capacity of 7d and 8a was assessed directly using the oxygen radical absorbance capacity (ORAC) assay, in which the physicochemical ability of the test compounds to scavenge radicals and quench fluorescein […] is quantified and related to so-called trolox equivalents (TE = 1 represents the antioxidant equivalence to trolox, a water-soluble Vitamin E derivative). Compound 7d was 0.163 ± 0.146, 8a, 0.635 ± 0.020, thus showing a very weak ORAC for the lipoate and a weak, but significant, effect for the ferulic acid derivative. The lack of activity of the lipoate in the non-cellular ORAC assay is not surprising as its anti-oxidant effects are mainly related to cellular or mitochondria related processes.
Compounds were assessed for antioxidant capacity using the standard ORAC assay performed as described previously.

human BuChE = human BuChE (Homo sapiens, UniProt P06276); assay: Inhibitor kinetics, time dependence of BuChE carbamylation; assay type: biochemical; settings: r^2 > 0.99
Protocol: Solutions of human BuChE were treated with 7a in the range of 1–50 µM. At successive time intervals, aliquots were removed and the carbamylation reaction stopped by dilution. Residual enzyme activity at each time point and each inhibitor concentration level was estimated by adding the sample to a solution containing butyrylthiocholine substrate.
In order to monitor enzyme carbamylation over time, a 96-well plate was used, with all assay mixtures being made up to a final concentration of 250 μL for monitoring of absorbance at 412 nm. At time 0, 150 μL of inhibitor, at various concentrations, was added to an equal volume of enzyme. Thereafter, at successive time points, 50 μL aliquots were removed from these wells and added to wells containing 200 μL DTNB and BTCI in phosphate buffer pH 8.0. Hydrolysis of substrate was monitored by examining the changes in absorbance in each well at 412 nm over the following 30 s. Negative controls were run alongside the test solutions to take account of non-enzymatic hydrolysis, while positive controls gauged the rate of the uninhibited reaction. At least two replicate wells were run for each concentration of inhibitor. Plots of percentage inhibition over time were prepared using GraphPad Prism 4.03. A first order inhibition constant, kobs was obtained for each concentration of inhibitor by non-linear regression using an exponential decay function.

[5] = inhibitor added 30 min before, read-out: BChE IC50
[6] = read-out: BChE pIC50 ± SEM (converted)

T2 sequence (O42275 24-633): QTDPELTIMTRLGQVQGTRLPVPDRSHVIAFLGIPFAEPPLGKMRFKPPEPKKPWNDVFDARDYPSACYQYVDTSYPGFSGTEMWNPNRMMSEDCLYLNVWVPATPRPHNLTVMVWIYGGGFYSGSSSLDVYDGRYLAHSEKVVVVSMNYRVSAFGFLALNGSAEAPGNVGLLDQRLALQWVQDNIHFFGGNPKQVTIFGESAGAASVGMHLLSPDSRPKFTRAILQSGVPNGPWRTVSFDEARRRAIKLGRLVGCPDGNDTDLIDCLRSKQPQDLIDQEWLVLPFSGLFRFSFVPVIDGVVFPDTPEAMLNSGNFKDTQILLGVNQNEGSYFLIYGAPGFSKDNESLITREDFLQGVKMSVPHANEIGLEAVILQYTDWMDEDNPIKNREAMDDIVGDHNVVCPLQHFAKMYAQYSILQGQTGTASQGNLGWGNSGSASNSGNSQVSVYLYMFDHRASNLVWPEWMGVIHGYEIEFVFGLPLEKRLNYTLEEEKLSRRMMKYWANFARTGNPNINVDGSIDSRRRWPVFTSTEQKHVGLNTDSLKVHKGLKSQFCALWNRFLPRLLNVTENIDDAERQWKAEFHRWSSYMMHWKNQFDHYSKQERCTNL
T1 sequence (P06276 29-602): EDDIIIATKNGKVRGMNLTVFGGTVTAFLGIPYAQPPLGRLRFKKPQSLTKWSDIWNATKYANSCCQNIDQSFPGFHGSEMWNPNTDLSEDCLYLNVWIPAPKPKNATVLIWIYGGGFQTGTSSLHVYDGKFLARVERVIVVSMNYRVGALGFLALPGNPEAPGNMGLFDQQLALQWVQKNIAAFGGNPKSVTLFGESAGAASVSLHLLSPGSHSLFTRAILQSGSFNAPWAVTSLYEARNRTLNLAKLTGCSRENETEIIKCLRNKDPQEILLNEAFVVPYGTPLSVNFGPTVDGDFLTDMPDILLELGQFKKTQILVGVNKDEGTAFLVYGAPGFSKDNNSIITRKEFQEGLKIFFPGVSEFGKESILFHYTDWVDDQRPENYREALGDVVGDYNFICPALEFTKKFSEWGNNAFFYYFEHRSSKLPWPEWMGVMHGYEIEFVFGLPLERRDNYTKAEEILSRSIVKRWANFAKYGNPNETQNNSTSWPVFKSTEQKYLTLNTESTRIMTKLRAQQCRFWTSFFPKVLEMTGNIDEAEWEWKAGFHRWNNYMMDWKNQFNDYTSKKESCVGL
Chain of human BuChE (P06276 29-602): as above

| Compound | IC50 [3, 5] [µM] | IC50 [3, 6] [µM] | inhibition at 100 µM (AChE from electric eel; 100 μM, n = 3) [%] | other results |
| --- | --- | --- | --- | --- |
| COc1cc(/C=C/C(=O)O)ccc1O [Ferulic acid, ferulic acid, reference compound] |  |  |  | neuroprotective effect ([1]; 1–25 µM): not active; toxicity / reduction in cell viability, compound alone [2]: non-toxic |
| CCCCNC(=O)O[C@H]1CO[C@H]2[C@@H]1OC[C@H]2O [Compound 6c, Isosorbide-2-butylcarbamate] | 28 | 28.2 |  | inhibition at 100 µM (AChE from electric eel): 30% |
| CCNC(=O)O[C@H]1CO[C@H]2[C@@H]1OC[C@H]2O [Compound 6d, Isosorbide-2-ethylcarbamate] | 46.9 | 46.8 | 22 |  |
| O=C(NCc1ccccc1)O[C@H]1CO[C@H]2[C@@H]1OC[C@H]2O [Compound 6a, Isosorbide-2-benzylcarbamate] | 25.8 |  |  | Selectivity [3]: 1.45; IC50 (AChE from electric eel; n = 3): 37.5 ± 7.4 µM |
| COc1cc(/C=C/C(=O)O[C@@H]2CO[C@H]3[C@@H]2OC[C@@H]3OC(=O)Nc2ccccc2)ccc1O [Compound 8b, Isosorbide-2-phenylcarbanate-5-ferulate] | 29.2 | 26.3 |  | Selectivity [3]: 0.92; IC50 (AChE from electric eel; n = 3): 27.1 ± 11.3 µM |
| O=C(NCc1ccccc1)O[C@H]1CO[C@H]2[C@@H]1OC[C@H]2OC(=O)c1ccccc1 [Compound 1] |  |  |  | IC50 (BuChE; read-out: IC50 BuChE): 0.0043 µM |
| CCNC(=O)O[C@H]1CO[C@H]2[C@@H]1OC[C@H]2OC(=O)/C=C/c1ccc(O)c(OC)c1 [Compound 8d, Isosorbide-2-ethylcarbanate-5-ferulate] | 95 | 95.5 |  | reduction in cell viability, compound alone ([2]; 25 µM): significant |
| CCCCNC(=O)O[C@H]1CO[C@H]2[C@@H]1OC[C@H]2OC(=O)/C=C/c1ccc(O)c(OC)c1 [Compound 8c, Isosorbide-2-butylcarbanate-5-ferulate] | 0.43 | 0.389 |  |  |
| COc1cc(/C=C/C(=O)O[C@@H]2CO[C@H]3[C@@H]2OC[C@@H]3OC(=O)NCc2ccccc2)ccc1O [Compound 8a, Isosorbide-2-benzylcarbanate-5-ferulate] | 1.82 | 1.62 | 25.2 | ORAC antioxidant capacity [4]: 0.635 ± 0.020 Trolox Equivalent; Selectivity [3]: >55 |
| O=C(NCc1ccccc1)OC1COC2C(OC(=O)c3ccccc3O)COC12 (centres unmarked) [Isosorbide-2-benzyl carbamate-5-salicylate] |  |  |  | IC50 (BuChE; read-out: IC50 for BuChE): < 0.00015 µM |
| CCCCNC(=O)O[C@H]1CO[C@H]2[C@@H]1OC[C@H]2OC(=O)CCCCC1CCSS1 (some centres unmarked) [Compound 7c, Isosorbide-2-butylcarbamate-5-lipoic acid ester] | 0.17 | 0.209 | 68.7 | neuroprotective effect ([1]; 1–25 µM): showed some effects |
| O=C(CCCCC1CCSS1)O[C@@H]1CO[C@H]2[C@@H]1OC[C@@H]2OC(=O)NCc1ccccc1 (some centres unmarked) [Compound 7a, Isosorbide-2-benzylcarbamate-5-lipoic acid ester] | 0.15 |  | 30.8 | Selectivity [3]: >667; concentration range with neuroprotective effect ([1]; tested at 1, 5, 10 and 25 µM): 5 to 25 µM and > 5 µM; pseudo first order rate constant of BuChE inhibition (human BuChE; inhibitor 10 µM): 0.068 min⁻¹; pseudo first order rate constant of BuChE inhibition (human BuChE; inhibitor 50 µM): 0.198 min⁻¹ |
| CCNC(=O)O[C@H]1CO[C@H]2[C@@H]1OC[C@H]2OC(=O)CCCCC1CCSS1 (some centres unmarked) [Compound 7d, Isosorbide-2-ethylcarbamate-5-lipoic acid ester] | 5.71 | 5.75 | 84.1 | ORAC antioxidant effect [4]: not active; ORAC antioxidant capacity [4]: 0.163 ± 0.146 Trolox Equivalent; neuroprotective effect ([1]; 1–25 µM): showed some effects |
| O=C(CCCCC1CCSS1)O[C@@H]1CO[C@H]2[C@@H]1OC[C@@H]2OC(=O)Nc1ccccc1 (some centres unmarked) [Compound 7b, Isosorbide-2-phenylcarbamate-5-lipoic acid ester] | 13.3 | 13.2 | 18.8 | Selectivity [3]: >7.5; neuroprotective effect ([1]; 1–25 µM): neuroprotective effect could not be observed |
| O=c1c(O)c(-c2ccc(O)c(O)c2)oc2cc(O)cc(O)c12 [Quercetin, quercetin, reference compound] |  |  |  | viability at 25 µM ([1]; Mus musculus, HT-22, compound 25 µM, read-out: cell viability after rescue from glutamate): ~80% |
| O=C(Nc1ccccc1)O[C@H]1CO[C@H]2[C@@H]1OC[C@H]2O [Compound 6b, Isosorbide-2-phenylcarbamate] | > 100 |  | 25.3 |  |
| O=C(O)CCCCC1CCSS1 (centres unmarked) [Lipoic acid, lipoic acid, reference compound] |  |  |  | neuroprotective effect ([1]; compound 5 µM): not effective; toxicity / reduction in cell viability, compound alone [2]: non-toxic |
